Measurements taken from patent US7173037B2, “Carbamate-substituted pyrazolopyridines” (Bayer HealthCare AG, priority 2002, dated 2007).
Read-outs that look alike come from different tables or passages of the source.

Tests used:
rabbit aorta rings = experiment: Vasorelaxant effect in vitro (phenylephrine-contracted aorta rings); type: cell-based; conditions: Oryctolagus cuniculus, phenylephrine contraction, read-out: IC50 (concentration necessary to reduce the height of the contraction by 50%)
Description: Rabbits are stunned by a blow to the back of the neck and are exsanguinated. The aorta is removed, freed of adherent tissue and divided into rings 1.5 mm wide, which are put singly under tension in 5 ml organ baths containing carbogen-gassed Krebs-Henseleit solution at 37° C. with the following composition (mM): NaCl:119; KCl:4.8; CaCl2×2H2O:1; MgSO4×7H2O:1.4; KH2PO4:1.2; NaHCO3:25; Glucose:10. The force of contraction is detected with Statham UC2 cells, amplified and digitized via A/D converters (DAS-1802 HC, Keithley Instruments Munich) and recorded in parallel on chart recorders. A contraction is generated by adding phenylephrine to the bath cumulatively in increasing concentration. After several control cycles, the substance to be investigated is investigated in each further run in increasing dosage in each case, and the height of the contraction is compared with the height of the contraction reached in the last preceding run. The concentration necessary to reduce the height of the control value by 50% (IC50) is calculated from this. The standard application volume is 5 μl, and the DMSO content in the bath solution corresponds to 0.1%.

CYP3A4 = conditions: human, hepatocytes
CYP1A2 = experiment: Induction of cytochrome P450 enzymes in human liver cell cultures, CYP1A2; type: in vitro ADME; conditions: human hepatocyte cultures, control = 1.0
CYP2C19 [1] = conditions: human, hepatocytes, 5 days
CYP2B6 [2] = conditions: human, hepatocytes, 5 days
[3] = design: species or system rats; conditions: rat, in vivo, po
Description: The substance to be investigated is administered intravenously as solution to animals (e.g. mice, rats, dogs), and oral administration takes place as solution or suspension by gavage. After administration of the substance, blood is taken from the animals at fixed times and is heparinized, and then plasma is obtained therefrom by centrifugation. The substance is quantified analytically in the plasma by LC/MS/MS. The plasma concentration/time courses found in this way are used to calculate the pharmacokinetic parameters by means of a validated pharmacokinetic computer programme.
Inhibition of Cytochrome P450 Enzymes

rabbit penis erection = experiment: Rabbit model (erection, length of the protruding penis); type: in vivo, chinchilla rabbits; conditions: oral administration, with simultaneous 0.2 mg/kg i.v. sodium nitroprusside SNP
Description: Adult male chinchilla rabbits weighing 3–5 kg are adapted to being kept singly for several days after delivery. They have free access to water and can take feed for two hours a day. The animals are kept in a 10/14-hour day/night rhythm (light on from 8.00 h), and the room temperature is 22–24° C.
Three to six animals are used in each treatment group and are weighed immediately before the start of the test. For the i.v. administration, the substances are dissolved in Transcutol (GATTEFOSSE GmbH) and diluted in the ratio 3/7 with a 20% strength Cremophor solution (Cremophor (BASF), water). A volume of 0.5 ml/kg is injected into the ear vein. Water-soluble substances are injected in 0.9% sodium chloride solution.
For oral administration, the test substances are dissolved in a 6:10:9.69 glycerol:water:polyethylene glycol mixture and administered by gavage in a volume of 1 ml/kg.
Under resting conditions, the rabbit penis is invisible in the pubic region and is completely covered by the penis skin. The erection is assessed by measuring the length of the protruding penis with a slide calliper. […] The animals are for this purpose removed from the cage each time, held firmly by the neck fur and the rear paws, turned on their backs and measured. […]

CYP2C19 [4] = experiment: Induction of cytochrome P450 enzymes in human liver cell cultures, CYP2C19; conditions: human hepatocyte cultures, 2000 μM, control = 1.0
CYP2B6 [5] = experiment: Induction of cytochrome P450 enzymes in human liver cell cultures, CYP2B6; conditions: human hepatocyte cultures, 2000 μM, control = 1.0

SMILES: COC(=O)N(C)c1cnc(-c2nn(Cc3ccccc3F)c3ncccc23)nc1N [Example 1, Methyl 4-amino-2-[1-(2-fluorobenzyl)-1H-pyrazolo[3,4-b]pyridin-3-yl]-5-pyrimidinyl(methyl)carbamate]
- IC50 (rabbit aorta rings): 0.67 µM

SMILES: COc1ccc2[nH]c([S+]([O-])Cc3ncc(C)c(OC)c3C)nc2c1 (stereo not drawn) [OME, omeprazole, reference compound]
- Inductive effect on CYP3A4 activity (standardized) (CYP3A4; 5 days, 100 μM): 1.45
- Inductive effect on CYP1A2 activity (standardized) (CYP1A2; 100 μM): 28.57
- Inductive effect on CYP2C19 activity (standardized) (CYP2C19 [1]; 100 μM): 1.61
- Inductive effect on CYP2B6 activity (standardized) (CYP2B6 [2]; 100 μM): 1.54

SMILES: COC(=O)N(C)c1c(N)nc(-c2nn(Cc3ccccc3F)c3ncccc23)nc1N [Example 8, Methyl 4,6-diamino-2-[1-(2-fluorobenzyl)-1H-pyrazolo[3,4-b]pyridin-3-yl]-5-pyrimidinyl(methyl)carbamate]
- Inductive effect on CYP3A4 activity (standardized) (CYP3A4; 5 days, 0.01 μg/ml): 1.37
- Inductive effect on CYP3A4 activity (standardized) (CYP3A4; 5 days, 0.1 μg/ml): 1.60
- Inductive effect on CYP3A4 activity (standardized) (CYP3A4; 5 days, 1 μg/ml): 1.51
- Inductive effect on CYP3A4 activity (standardized) (CYP3A4; 5 days, 10 μg/ml): 3.47
- Inductive effect on CYP1A2 activity (standardized) (CYP1A2; 0.01 μg/ml): 0.76
- Inductive effect on CYP1A2 activity (standardized) (CYP1A2; 0.1 μg/ml): 0.70
- Inductive effect on CYP1A2 activity (standardized) (CYP1A2; 1.0 μg/ml): 0.90
- Inductive effect on CYP1A2 activity (standardized) (CYP1A2; 10 μg/ml): 1.38
- Inductive effect on CYP2C19 activity (standardized) (CYP2C19 [1]; 0.01 μg/ml): 1.30
- Inductive effect on CYP2C19 activity (standardized) (CYP2C19 [1]; 0.1 μg/ml): 1.30
- Inductive effect on CYP2C19 activity (standardized) (CYP2C19 [1]; 1 μg/ml): 1.12
- Inductive effect on CYP2C19 activity (standardized) (CYP2C19 [1]; 10 μg/ml): 1.97
- AUCstand ([3]; 0.3 mg/kg): 0.326 kg·h/L
- AUCstand ([3]; 1 mg/kg): 0.548 kg·h/L
- IC50 (rabbit aorta rings): 0.5 µM
- minimal effective dose (rabbit penis erection): 0.03 mg/kg
- Inductive effect on CYP2B6 activity (standardized) (CYP2B6 [2]; 0.01 μg/ml): 1.92
- Inductive effect on CYP2B6 activity (standardized) (CYP2B6 [2]; 0.1 μg/ml): 1.62
- Inductive effect on CYP2B6 activity (standardized) (CYP2B6 [2]; 1 μg/ml): 1.85
- Inductive effect on CYP2B6 activity (standardized) (CYP2B6 [2]; 10 μg/ml): 2.54

SMILES: CCC1(c2ccccc2)C(=O)NC(=O)NC1=O [PB, phenobarbital]
- Inductive effect on CYP2C19 activity (standardized) (CYP2C19 [4]): 4.00
- Inductive effect on CYP3A4 activity (standardized) (CYP3A4): 6.70
- Inductive effect on CYP2B6 activity (standardized) (CYP2B6 [5]): 14.69

SMILES: CO[C@H]1/C=C/O[C@@]2(C)Oc3c(C)c(O)c4c(O)c(c(/C=N/N5CCN(C)CC5)c(O)c4c3C2=O)NC(=O)/C(C)=C\C=C\[C@H](C)[C@H](O)[C@@H](C)[C@@H](O)[C@@H](C)[C@H](OC(C)=O)[C@@H]1C [RIF, rifampicin, reference compound]
- Inductive effect on CYP2C19 activity (standardized) (CYP2C19 [1]; 50 μM): 15.21
- Inductive effect on CYP2B6 activity (standardized) (CYP2B6 [2]; 50 μM): 5.15
